Key:
Test in all cases: relative viability (nuclei count vs DMSO), 5 days (fraction); higher = more cells survive
[1] = compound: COc1cc2nc(N3CCCN(C)CC3)nc(NC3CCN(Cc4ccccc4)CC3)c2cc1OC + CC(C)C[C@H](NC(=O)[C@H](Cc1ccccc1)NC(=O)c1cnccn1)B(O)O [Bortezomib] (partner 0.002 µM)
In short: (§1)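 A single step with final 0.05% Triton X-100, 1% formaldehyde and 1 ug/ml Hoechst fixed the cells and stained nuclei 5 days after treatment. Lung cancer cell lines in 1536-well plates had been treated by pin tool the day after seeding with one drug alone or a fixed anchor-drug dose plus five library-drug doses (not always all listed) in √10 steps, and nuclei were counted on 4× images. Relative viability is the ratio of nuclei in treated wells to nuclei in vehicle wells, taken as the median of duplicate plates.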

AZD6482 + Bortezomib = compound: Cc1cc([C@@H](C)Nc2ccccc2C(=O)O)c2nc(N3CCOCC3)cc(=O)n2c1 [AZD6482] + CC(C)C[C@H](NC(=O)[C@H](Cc1ccccc1)NC(=O)c1cnccn1)B(O)O [Bortezomib] (partner 0.002 µM)
In short: as §1

AZD6482 + AZD7762 = compound: Cc1cc([C@@H](C)Nc2ccccc2C(=O)O)c2nc(N3CCOCC3)cc(=O)n2c1 [AZD6482] + NC(=O)Nc1cc(-c2cccc(F)c2)sc1C(=O)N[C@H]1CCCNC1 [AZD7762] (partner 0.2 µM)
In short: as §1

[2] = compound: COc1cc2nc(N3CCCN(C)CC3)nc(NC3CCN(Cc4ccccc4)CC3)c2cc1OC + C[C@@H](Oc1cc(-c2cnn(C3CCNCC3)c2)cnc1N)c1c(Cl)ccc(F)c1Cl [Crizotinib] (partner 1 µM)
In short: as §1

Cell Line	relative viability ([1]; first compound 0.2 µM)	relative viability ([1]; first compound 0.6325 µM)	relative viability ([1]; first compound 2 µM)	relative viability ([1]; first compound 6.325 µM)	relative viability (AZD6482 + Bortezomib; first compound 0.08 µM)	relative viability (AZD6482 + Bortezomib; first compound 0.253 µM)	relative viability (AZD6482 + Bortezomib; first compound 0.8 µM)	relative viability (AZD6482 + Bortezomib; first compound 2.53 µM)	relative viability (AZD6482 + Bortezomib; first compound 8 µM)	relative viability (AZD6482 + AZD7762; first compound 0.08 µM)	relative viability (AZD6482 + AZD7762; first compound 0.253 µM)	relative viability (AZD6482 + AZD7762; first compound 0.8 µM)	relative viability (AZD6482 + AZD7762; first compound 2.53 µM)	relative viability (AZD6482 + AZD7762; first compound 8 µM)	relative viability ([2]; first compound 0.2 µM)	relative viability ([2]; first compound 0.6325 µM)	relative viability ([2]; first compound 2 µM)	relative viability ([2]; first compound 6.325 µM)
BEN	0.781	0.952	1.09	0.883	0.592	0.768	0.596	0.641	0.788	0.664	0.68	0.779	0.457	0.646	0.923	0.892	0.944	0.963
LCLC-103H	1.18	1.09	1.31	1.01	0.969	1.08	0.921	0.742	0.729	0.626	0.721	0.619	0.579	0.562	1	0.973	1.14	1.06
EKVX	1.09	0.993	1.18	0.963	0.815	0.965	0.863	0.789	0.689	0.564	0.666	0.538	0.478	0.494	1.08	0.887	1.05	0.9
LXF-289	0.98	0.973	1.03	0.985	0.972	1	1.05	0.845	0.947	1.11	1.13	1.26	0.982	0.956	0.812	0.8	0.824	0.786
ABC-1	0.26	0.339	0.264	0.328	0.267	0.306	0.317	0.336	0.408	0.825	0.892	0.695	0.772	0.638	1.01	1.01	1.05	1.15
NCI-H650	0.752	0.739	1.05	0.694	0.895	–	0.927	0.424	0.57	1.06	0.918	1.12	0.77	0.619	0.734	0.589	0.841	0.733
NCI-H2085	1	0.978	0.996	0.912	0.824	0.659	0.766	0.393	0.458	0.522	0.372	0.41	0.289	0.341	0.866	0.842	0.859	0.776
LC-2-ad	1.03	1.01	1.16	1.04	1.07	0.962	1.1	0.754	0.926	0.842	0.774	0.821	0.662	0.593	0.398	0.484	0.475	0.43
NCI-H1355	1.23	1.21	1.29	1.1	1.06	1.06	1.16	0.874	1.03	0.642	0.755	0.745	0.681	0.65	1.08	1.17	1.01	0.993
H3255	0.782	0.944	0.726	0.43	0.738	0.896	0.874	0.382	0.559	0.895	0.83	0.984	0.697	0.692	0.781	0.894	1.03	0.856
NCI-H1993	1.02	1.37	1.23	1.05	0.848	0.94	–	–	0.852	0.454	0.734	0.717	0.427	0.55	0.796	0.839	0.882	0.834
NCI-H1734	0.919	0.792	1.05	0.662	0.791	0.893	0.977	0.525	0.556	0.533	0.504	0.556	0.303	0.367	0.66	0.602	0.687	0.661
HOP-62	0.623	0.869	0.855	0.469	0.795	1.12	0.752	0.939	1.18	0.577	0.626	0.706	0.526	0.761	0.936	0.822	0.764	0.943
LOU-NH91	0.481	0.552	0.465	0.517	0.453	0.473	0.519	0.475	0.6	0.695	0.69	0.704	0.519	0.543	0.701	0.742	0.668	0.778
ChaGo-K-1	0.995	1.13	1.16	0.838	1.09	–	1.14	0.981	1.27	0.897	0.775	0.946	0.823	0.915	1.18	1.11	1.14	1.09

Source: the supplement of paper PMC10307832
